Data taken from patent publication EP0071535B1, “(4-(2 and/or 3-Thienylacetamido)-phenoxy)-hydroxyaminopropanes, their preparation, their therapeutic use and intermediates” (CARPIBEM (CENTRE D'ACTIVITE ET DE RECHERCHE PHARMACEUTIQUE …, priority 1981, dated 1983).

Legend:
[1] = tested on: effets β1 (augmentation de la force contractile du myocarde) de l'isoprénaline; experiment: β-blocking activity: inhibition of the β1 effects of intravenous isoprenaline in anaesthetised dogs; assay type: in vivo, chiens; settings: dog; for inhibition at 0.001 mg/kg / inhibition at 0.003 mg/kg / inhibition at 0.01 mg/kg / inhibition at 0.1 mg/kg: Canis lupus familiaris, iv, inhibition given with negative sign, read-out: % d'inhibition des effets β1^(+) de l'Isoprénaline; for inhibition at 0.001 mg/kg: 0,001 mg/kg I.V.; for inhibition at 0.003 mg/kg: 0,003 mg/kg I.V.; for inhibition at 0.01 mg/kg: 0,010 mg/kg I.V.; for inhibition at 0.1 mg/kg: 0,100 mg/kg I.V.
Protocol: (§1) Des chiens tout-venants mâles ou femelles sont anesthésiés au mébubarbital sodique (30 mg/kg I.V.) et ventilés artificiellement par une pompe Pesty RPP. Ils sont supplémentés en oxygène.
(§2) On mesure: • - la pression carotidienne systolique et diastolique • - la force contractile du myocarde.
(§3) Les signaux sont amplifiés et enregistrés sur Dynograph Beckman.
(§4) L'activité β bloquante adrénergique a été étudiée vis-à-vis des effets β1 (augmentation de la force contractile du myocarde) et des effets P2 (diminution de la pression artérielle disstolique) de l'isoprénaline administrée par voie intraveineuse.
(§5) On calcule le pourcentsge d'inhibition des effets β1 et des effets β2 de l'isoprénaline en fonction des doses (mg.kg I.V.) des différents exemples.
(§6) Les exemples sont injectés dans le veine saphène aux doses (exprimées en base) de: 0,0003 0,001 0,003 0,01 0,1 1,0 et 4,0 ou 8,0 mg.kg-1.

[2] = tested on: effets β2 (diminution de la pression artérielle diastolique) de l'isoprénaline; experiment: β-blocking activity: inhibition of the β2 effects of intravenous isoprenaline in anaesthetised dogs; assay type: in vivo, chiens; settings: dog; for inhibition at 0.001 mg/kg / inhibition at 0.003 mg/kg / inhibition at 0.01 mg/kg / inhibition at 0.1 mg/kg: Canis lupus familiaris, iv, inhibition given with negative sign, read-out: % d'inhibition des effets β2^⊕ de l'Isoprénaline; for inhibition at 0.001 mg/kg: 0,001 mg/kg I.V.; for inhibition at 0.003 mg/kg: 0,003 mg/kg I.V.; for inhibition at 0.01 mg/kg: 0,010 mg/kg I.V.; for inhibition at 0.1 mg/kg: 0,100 mg/kg I.V.
Protocol: as §1, §2, §3, §4, §5, §6

[3] = tested on: rat génétiquement hypertendu: Rat OKAMOTO; experiment: Antihypertensive activity in spontaneously hypertensive rats (tail-cuff systolic pressure and heart rate after oral dosing); assay type: in vivo
Protocol: Des rats mâles âgés de 13 à 21 semaines présentant une hypertension spontanée génétiquement transmissible (souche OKAMOTO provenance IFFA CREDO) sont placés dans une enceinte thermostatée à 38°C. Les rats sont laissés en situation libre. La pression artérielle est mesurée par un sphygmomanomètre Narco Biosystem. Un manchon est placé à la base de la queue et un détecteur enregistre le pouls en aval du manchon. Celui-ci est gonflé jusqu'à suppression du pouls il est ensuite progressivement dégonflé. La pression mesurée à la reprise des battements cardiaques est la pression artérielle systolique. On calcule la fréquence cardiaque à partir de l'enregistrement du pouls artériel. Les produits à étudiar sont mis en suspension el administrés par voie orale sous un volume de 1 ml pour 100 g de poids corporel. Les mesures sont répétées à intervalles réguliers.
Les valeurs moyennes avant traitement pour les différents lots de rats sont pour la pression artérielle systolique de 190 à 200 mmHg et pour la fréquence cardiaque de 305 à 350 battements par minute.
Le tableau III ci-après donne la moyenne des variations de la pression systolique (mmHg) de la fréquence cardisque (battements/minute) et les écarts type à la moyenne obtenus 1 heure 3 heures et 5 heures après administration orale.

[4] = 0.1 mg.kg^-1 voie intraveineuse
[5] = 1.0 mg.kg^-1 voie intraveineuse
[6] = 8.0 mg.kg^-1 voie intraveineuse

| SMILES | inhibition at 0.001 mg/kg [1] | inhibition at 0.003 mg/kg [1] | inhibition at 0.01 mg/kg [1] | inhibition at 0.1 mg/kg [1] | inhibition at 0.001 mg/kg [2] | inhibition at 0.003 mg/kg [2] | inhibition at 0.01 mg/kg [2] | inhibition at 0.1 mg/kg [2] | Fréquence cardiaque Δ (battements/min) T+1 heure m (sm) ([3]; 64 mg.kg^-1 V.O) | Pression systolique Δ (mmHg) T+1 heure m (sm) ([3]; 64 mg.kg^-1 V.O) | Fréquence cardiaque Δ (battements/min) T+3 heures m (sm) ([3]; 64 mg.kg^-1 V.O) | Pression systolique Δ (mmHg) T+3 heures m (sm) ([3]; 64 mg.kg^-1 V.O) | Fréquence cardiaque Δ (battements/min) T+5 heures m (sm) ([3]; 64 mg.kg^-1 V.O) | Pression systolique Δ (mmHg) T+5 heures m (sm) ([3]; 64 mg.kg^-1 V.O) | Fréquence cardiaque Δ (battements/min) T+1 heure m (sm) ([3]; 128 mg.kg^-1 V.O) | Pression systolique Δ (mmHg) T+1 heure m (sm) ([3]; 128 mg.kg^-1 V.O) | Fréquence cardiaque Δ (battements/min) T+3 heures m (sm) ([3]; 128 mg.kg^-1 V.O) | Pression systolique Δ (mmHg) T+3 heures m (sm) ([3]; 128 mg.kg^-1 V.O) | Fréquence cardiaque Δ (battements/min) T+5 heures m (sm) ([3]; 128 mg.kg^-1 V.O) | Pression systolique Δ (mmHg) T+5 heures m (sm) ([3]; 128 mg.kg^-1 V.O) | other results |
| --- | --- | --- | --- | --- | --- | --- | --- | --- | --- | --- | --- | --- | --- | --- | --- | --- | --- | --- | --- | --- | --- |
| C=CCc1cc(NC(=O)Cc2cccs2)ccc1OCC(O)CNC(C)(C)C (stereo not shown) [exemple 11, 1-[2-allyl 4-(2-thiénylacétamido)phénoxy] 3-ter-butylamino 2-propanol] | -11% | -37% | -70% | -100% | 0% | 0% | 0% | -17% | +7 (8) battements/min | -54 (1) mmHg | +10 (9) battements/min | -49 (10) mmHg | 0 (9) battements/min | -44 (11) mmHg | – | – | – | – | – | – | Pourcentages d'inhibition des effets β1 de l'Isoprénaline ([1]; 0.001 mg.kg^-1 voie intraveineuse): 11%; Pourcentages d'inhibition des effets β1 de l'Isoprénaline ([1]; 0.003 mg.kg^-1 voie intraveineuse): 37%; Pourcentages d'inhibition des effets β1 de l'Isoprénaline ([1]; 0.01 mg.kg^-1 voie intraveineuse): 70%; Pourcentages d'inhibition des effets β1 de l'Isoprénaline [1, 4]: 100%; Pourcentages d'inhibition des effets β1 de l'Isoprénaline [1, 5]: 100%; Pourcentages d'inhibition des effets β1 de l'Isoprénaline [1, 6]: 100%; Pourcentages d'inhibition des effets β2 de l'Isoprénaline [2, 4]: 17%; Pourcentages d'inhibition des effets β2 de l'Isoprénaline [2, 5]: 77%; Pourcentages d'inhibition des effets β2 de l'Isoprénaline [2, 6]: 100% |
| C=CCc1cc(NC(=O)Cc2ccsc2)ccc1OCC(O)CNC(C)(C)C (stereo not shown) [exemple 38, 1-[2-allyl 4-(3-thiénylacétamido)phénoxy] 3-terbutylamino 2-propanol] | -5% | -35% | -73% | -100% | -4% | -4% | -6% | -27% | +39 (9) battements/min | -31 (5) mmHg | +21 (9) battements/min | -26 (5) mmHg | +29 (13) battements/min | -34 (7) mmHg | – | – | – | – | – | – | – |
| CC(C)(C)NCC(O)COc1ccc(NC(=O)Cc2cccs2)cc1Br (stereo not shown) [exemple 39, 1-[2-bromo 4-(2-thiénylacétamido)phénoxy] 3-terbutylamino 2-propanol] | -11% | -65% | -89% | -100% | 0% | 0% | -5% | -49% | – | – | – | – | – | – | +47 (15) battements/min | -33 (9) mmHg | +56 (4) battements/min | -34 (11) mmHg | +47 (4) battements/min | -43 (9) mmHg | – |
| CC(C)NCC(O)COc1ccc(NC(=O)Cc2cccs2)cc1Br (stereo not shown) [exemple 40, 1-[2-bromo 4-(2-thiénylacétamido)phénoxy] 3-isopropylamino 2-propanol] | 0% | -19% | -53% | -93% | 0% | 0% | 0% | -4% | – | – | – | – | – | – | +23 (23) battements/min | -58 (10) mmHg | +20 (14) battements/min | -63 (7) mmHg | +18 (11) battements/min | -63 (3) mmHg | – |
| CC(C)(C)NCC(O)COc1ccc(NC(=O)Cc2ccsc2)cc1Br (stereo not shown) [exemple 41, 1-[2-bromo 4-(3-thiénylacétamido)phénoxy] 3-terbutylamino 2-propanol] | -12% | -49% | -83% | -97% | -3% | 0% | -31% | -55% | +57 (18) battements/min | -44 (14) mmHg | +55 (15) battements/min | -30 (10) mmHg | +68 (16) battements/min | -33 (12) mmHg | – | – | – | – | – | – | – |
| CC(C)NCC(O)COc1ccc(NC(=O)Cc2ccsc2)cc1Br (stereo not shown) [exemple 42, 1-[2-bromo 4-(3-thiénylacétamido)phénoxy] 3-isopropylamino 2-propanol] | -29% | -51% | -70% | -100% | 0% | 0% | 0% | 0% | +50 (19) battements/min | -43 (8) mmHg | +17 (12) battements/min | -55 (7) mmHg | +33 (12) battements/min | -51 (10) mmHg | – | – | – | – | – | – | – |
| CC(C)(C)NCC(O)COc1ccc(NC(=O)Cc2cccs2)cc1Cl (stereo not shown) [exemple 43, 1-[2-chloro 4-(2-thiénylacétamido)phénoxy] 3-terbutylamino 2-propanol] | -18% | -49% | -82% | -100% | 0% | 0% | 0% | -22% | +13 (20) battements/min | -29 (9) mmHg | +23 (7) battements/min | -44 (6) mmHg | +30 (12) battements/min | -44 (4) mmHg | – | – | – | – | – | – | – |
| CC(C)NCC(O)COc1ccc(NC(=O)Cc2cccs2)cc1Cl (stereo not shown) [exemple 44, 1-[2-chloro 4-(2-thiénylacétamido)phénoxy] 3-isopropylamino 2-propanol] | -27% | -46% | -67% | -82% | -11% | -22% | -18% | -15% | – | – | – | – | – | – | +68 (5) battements/min | -37 (11) mmHg | +45 (12) battements/min | -48 (11) mmHg | +52 (11) battements/min | -53 (11) mmHg | – |
